In PubChem BioAssay (NCI):
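Dose response: 5 concentrations. Exposure: 48 h. Format: 96-well plates. Endpoint: linear interpolation; highest concentration if not reached. GI50 marks 50% less growth. The concentration for full growth arrest is given as TGI.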

Columns and labels:
Experiment in all cases: NCI-60 cell line screen, 48 h
CAKI-1 renal = tested on: CAKI-1 renal
HCC-2998 colon = tested on: HCC-2998 colon
IGROV1 ovarian = tested on: IGROV1 ovarian
M14 melanoma = tested on: M14 melanoma
NCI-H226 lung = tested on: NCI-H226 lung
OVCAR-4 ovarian = tested on: OVCAR-4 ovarian
SNB-19 CNS = tested on: SNB-19 CNS
UACC-257 melanoma = tested on: UACC-257 melanoma
HS 578T breast = tested on: HS 578T breast
OVCAR-8 ovarian = tested on: OVCAR-8 ovarian

Row | Compound | TGI (CAKI-1 renal) [µM] | TGI (HCC-2998 colon) [µM] | TGI (IGROV1 ovarian) [µM] | TGI (M14 melanoma) [µM] | TGI (NCI-H226 lung) [µM] | TGI (OVCAR-4 ovarian) [µM] | TGI (SNB-19 CNS) [µM] | TGI (UACC-257 melanoma) [µM] | GI50 (HCC-2998 colon) [µM] | GI50 (HS 578T breast) [µM] | TGI (HS 578T breast) [µM] | GI50 (IGROV1 ovarian) [µM] | GI50 (M14 melanoma) [µM] | GI50 (OVCAR-4 ovarian) [µM] | GI50 (OVCAR-8 ovarian) [µM] | TGI (OVCAR-8 ovarian) [µM] | GI50 (SNB-19 CNS) [µM] | GI50 (UACC-257 melanoma) [µM] | GI50 (CAKI-1 renal) [µM] | GI50 (NCI-H226 lung) [µM]
1 | CC(=O)OCC(=O)[C@@]1(O)CC[C@H]2[C@@H]3C[C@H](C)C4=CC(=O)C=C[C@]4(C)[C@@]3(F)[C@@H](O)C[C@@]21C | > 100 | > 100 | > 100 | > 100 | > 100 | > 100 | > 100 | > 100 |  |  |  |  |  |  |  |  |  |  |  | 
2 | Cc1cc(Cl)nc(N(CCNc2ccnc3cc(Cl)ccc23)Cc2ccco2)n1 |  | 4.22 | 3.66 | 3.63 |  | 3.38 | 16.2 | 4.16 | 2.03 | 2.27 | 6.32 | 1.75 | 1.88 | 1.67 | 1.93 | 4.29 | 3.54 | 1.97 |  | 
3 | S=C1SCN(Cc2ccccc2)CN1Cc1ccco1 | 17.4 | 34.1 | 26.4 | 19.3 |  |  | > 100 | 20.7 | 16.6 | 19.7 | 81.5 | 8.47 | 4.04 |  | 5.71 | 32 | 35.5 | 6.28 | 4.81 | 
4 | CC12OC(=O)C(C#N)C1(C)C1C(=O)CCCC12 (stereo not drawn) |  |  | > 100 | > 100 | > 100 | > 100 | > 100 |  |  |  |  |  |  |  |  | > 100 |  |  |  | 
5 | Cc1ccccc1C(CCCO)C(=O)O (stereo not drawn) | > 100 |  | > 100 | > 100 |  | > 100 | > 100 | > 100 |  |  |  |  |  |  |  | > 100 |  |  |  | 
6 | CC1NOC(=O)C1N=Nc1ccc(Cl)cc1Cl (stereo not drawn) | 60.9 | 80.4 | 85.7 | 47.4 | 63.4 | 56.5 | 55.8 | 67.2 |  |  |  |  |  |  |  | 72 |  |  |  | 
7 | CCc1cccc(CC)c1NC(=O)/C(Cl)=C(/Cl)C(=O)O | 32.6 | > 75.9 | 50.4 | 35.9 | > 100 | 31.1 | > 100 | 48.3 |  |  |  |  |  |  |  | 33.3 |  |  |  | 
8 | CC(=O)[CH-]C(=O)c1ccccc1.[C-]#[O+].[C-]#[O+].[Ir] | > 100 | > 100 | > 100 |  | > 100 | > 100 | > 100 | > 100 | > 100 |  |  | > 100 |  | > 100 | > 100 | > 100 | > 100 | > 100 | > 100 | > 100
9 | O=[N+]([O-])c1ccc(-c2ccc(C3=Nn4c(CNc5ccccc5Cl)nnc4SC3)o2)cc1 | > 100 | > 100 | > 100 | > 100 | > 100 |  | > 100 | > 100 |  |  |  |  |  |  |  | > 100 |  |  |  | 
10 | C(=Nc1nc(SCc2ccccc2)nc2[nH]ncc12)c1cccs1 | > 100 | > 100 | > 100 | > 100 | > 100 | > 100 | > 100 | > 100 | 37.7 |  |  | > 100 | 34.7 | > 100 | 39.6 | > 100 | 26.4 | 53.7 | 29.8 | 45.7
